Patent US8389523B2, “Substituted quinoxaline and an agrochemical composition thereof” (Kumiai Chemical Industry Co., Ltd., priority 2007, dated 2013)

Assays:
Amaranthus viridis L. [1] = assay: Herbicidal effects in upland field foliar treatment (Test Example 3); assay type: in vivo; design: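 grade 0 to 5 of growth suppression where 5 is 90% or more and 0 below 10%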; conditions: criteria of Table 138; for herbicidal effects on Amaranthus viridis L.: 1000 g of the active ingredient per hectare, 14th day after the treatment, wettable powder
Method in brief: (§1)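 Post-emergence foliar treatment: two-week-old seedlings from upland field soil received 1000 g a.i./ha (wettable powder, 1000 L water/ha), then returned to the greenhouse for scoring 14 days later.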

[2] = test system: Abutilon theophrasti medicus; assay: as above; assay type: in vivo; design: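 grade 0 to 5 of growth suppression where 5 is 90% or more and 0 below 10%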; conditions: criteria of Table 138; for herbicidal effects on Abutilon theophrasti medicus: 1000 g of the active ingredient per hectare, 14th day after the treatment, wettable powder
Method in brief: as §1

[3] = test system: Echinochloa crus-galli (L.) P. Beauv. var. crus-galli; assay: as above; assay type: in vivo; design: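 grade 0 to 5 of growth suppression where 5 is 90% or more and 0 below 10%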; conditions: criteria of Table 138; for herbicidal effects on Echinochloa crus-galli (L.) P. Beauv. var. crus-galli: 1000 g of the active ingredient per hectare, 14th day after the treatment, wettable powder
Method in brief: as §1

[4] = test system: Echinochloa oryzicola Vasing; assay: Herbicidal effects in paddy field soil treatment (Test Example 1); assay type: in vivo; design: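 grade 0 to 5 of growth suppression where 5 is 90% or more and 0 below 10%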; conditions: paddy field soil treatment; 1000 g of the active ingredient per hectare; wettable powder added dropwise on water surface; 21st day after treatment
Method in brief: (§2)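 Flooded-paddy soil treatment under greenhouse conditions: a diluted wettable powder at 1000 g a.i./ha went onto the water surface one day post-sowing, with 3 cm standing water, and weed control was graded on a scoring scale 21 days after treatment.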

[5] = test system: Monochoria vaginalis (Burm. f.) Presl var. plantaginea (Roxb.) Solms-Laub.; assay: as above; assay type: in vivo; design: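 grade 0 to 5 of growth suppression where 5 is 90% or more and 0 below 10%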; conditions: paddy field soil treatment; 1000 g of the active ingredient per hectare; wettable powder added dropwise on water surface; 21st day after treatment
Method in brief: as §2

[6] = test system: Scirpus juncoides Roxb. var. ohwianus. T. Koyama; assay: as above; assay type: in vivo; design: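 grade 0 to 5 of growth suppression where 5 is 90% or more and 0 below 10%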; conditions: paddy field soil treatment; 1000 g of the active ingredient per hectare; wettable powder added dropwise on water surface; 21st day after treatment
Method in brief: as §2

Amaranthus viridis L. [7] = assay: Herbicidal effects in upland field soil treatment (Test Example 2); assay type: in vivo; design: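 grade 0 to 5 of growth suppression where 5 is 90% or more and 0 below 10%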; conditions: 1000 g active ingredient per hectare, 21st day after treatment, criteria of Table 138
Method in brief: (§3)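 Soil-applied before emergence at 1000 g a.i./ha as water-diluted wettable powder; greenhouse-grown plants rated for herbicidal damage 21 days post-treatment.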

[8] = test system: Abutilon theophrasti medicus; assay: as above; assay type: in vivo; design: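 grade 0 to 5 of growth suppression where 5 is 90% or more and 0 below 10%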; conditions: 1000 g active ingredient per hectare, 21st day after treatment, criteria of Table 138
Method in brief: as §3

[9] = 1000 g active ingredient per hectare, 14th day after treatment

| Structure (SMILES) | melting point [°C] | herbicidal effect (index) on Amaranthus viridis L. (Amaranthus viridis L. [1]; [9]) | herbicidal effect (index) on Abutilon theophrasti medicus [2, 9] | herbicidal effect (index) on Echinochloa crus-galli (L.) P. Beauv. var. crus-galli [3, 9] | Herbicidal effects index, Echinochloa oryzicola Vasing [4] | Herbicidal effects index, Monochoria vaginalis (Burm. f.) Presl var. plantaginea (Roxb.) Solms-Laub. [5] | Herbicidal effects index, Scirpus juncoides Roxb. var. ohwianus. T. Koyama [6] | herbicidal effect (index) on Amaranthus viridis L. (Amaranthus viridis L. [7]) | herbicidal effect (index) on Abutilon theophrasti medicus [8] | herbicidal effects on Amaranthus viridis L. (Amaranthus viridis L. [1]) | herbicidal effects on Abutilon theophrasti medicus [2] | herbicidal effects on Echinochloa crus-galli (L.) P. Beauv. var. crus-galli [3] |
| --- | --- | --- | --- | --- | --- | --- | --- | --- | --- | --- | --- | --- |
| Cn1c(=O)c(C(=O)C2=C(O)CCCC2=O)nc2ccccc21 [I-2, 3-(2-hydroxy-6-oxo-1-cyclohexenecarbonyl)-1-methylquinoxalin-2(1H)-one] | 191 to 192 | 5 | 5 | 4 | 4 | 5 | 5 | 5 | 5 | – | – | – |
| Cc1cccc(-n2c(=O)c(C(=O)C3=C(O)CCCC3=O)nc3ccccc32)c1 [II-20] | – | – | – | – | 5 | 5 | 5 | 5 | 5 | 5 | 5 | 5 |
| Cc1cccc(-n2c(=O)c(C(=O)C3=C(O)CCCC3=O)nc3cccnc32)c1 [IV-20] | – | – | – | – | 5 | 5 | 5 | 5 | 5 | 5 | 5 | 5 |
| CCCCn1c(=O)c(C(=O)C2=C(O)CCCC2=O)nc2cccnc21 [III-15] | – | – | – | – | 5 | 5 | 5 | 5 | 5 | 5 | 5 | 5 |
| COc1ccc(-n2c(=O)c(C(=O)C3=C(O)CCCC3=O)nc3ccccc32)c(OC)c1OC [II-218] | – | – | – | – | 4 | 5 | 5 | 5 | 5 | 5 | 5 | 4 |
| COc1ccccc1Cn1c(=O)c(C(=O)C2=C(O)CCCC2=O)nc2cccnc21 [III-120] | – | – | – | – | 5 | 5 | 5 | 5 | 4 | 5 | 5 | 5 |
| CCOc1ccc(-n2c(=O)c(C(=O)C3=C(O)CCCC3=O)nc3ccccc32)cc1 [II-69] | – | – | – | – | 5 | 5 | 5 | 5 | 4 | 5 | 5 | 5 |
| O=C1CCCC(O)=C1C(=O)c1nc2ccccc2n(-c2ccc3c(c2)COC3)c1=O [II-224] | – | – | – | – | 4 | 5 | 5 | 5 | 5 | 5 | 5 | 5 |
